Laboratory results reported in patent US6838453B2, “Antagonist derivatives of the vitronectin receptor” (Aventis Pharma S.A., priority 2000, dated 2005).
Structures can show the parent of a compound that is named as a salt.

Biological target: human αvβ3 receptor (Homo sapiens, UniProt P05106+P06756)
Experiment: Kistrin/Vitronectin Receptor (αvβ3) ELISA test
Format: binding
Conditions: Kistrin-coated plates, co-incubated 3 hours at ambient temperature, 4B12-HRP antibody, OD 450 nm, read-out: K/VnR IC50
Method: Kistrin/Vitronectin Receptor (αvβ3) ELISA Test
96-well MaxiSorp planes are coated overnight at […] with 100 μl of Kistrin at 1 μg/ml (dilution in a coating buffer: carbonate 0.05 M/NaOH pH 9.6). The next day, the wells are emptied and the ligands (kistrin) are then fixed (fixing buffers: PBS containing 0.5% BSA (pH=7.4)) for 1 hour at ambient temperature with gentle agitation at 125 rpm. The wells are washed six times (washing buffer: PBS containing 0.05% of Tween 20 (pH 7.7) then the following are added per well and in this order: • 40 μl of incubation buffer • 10 μl of the dilution of the product to be tested (the products are diluted in a 50:50 mixture DMSO/Water) • 50 μl of human αvβ3 receptor (cf Pytella et al. Methods Enzymol. (1987) 144 (Dilution in incubation buffer, to be adapted according to the receptor batch and according to the ligand). The ligand, the αvβ3 receptor and the products to be studied are co-incubated for 3 hours at ambient temperature with gentle agitation at 125 rpm.
The wells are again washed six times, then incubated for 2 hours at ambient temperature with gentle agitation at 125 rpm, in the presence of 100 μl of anti-receptor antibody conjugated to a peroxidase (The 4B12-HRP antibody is diluted in an incubation buffer (50 mM TRIS pH 7.4; 0.5% BSA; 0.05% Tween 20; 1 mM MnCl2; 50 μM CaCl2; 50 μM MgCl2; 100 mM NaCl) The dilution is adapted according to the receptor batch.
The wells are then washed six times before measuring the ligand-receptor bond carried out using a peroxidase developer kit (TBM Microwell Peroxidase Substrate System Kirkegaard; Cat. Ref. 50-76-00).
This kit contains a bottle A of substrate (3,3′,5,5′-tetramethylebenzidine at 0.4 g/l) and a bottle B (H2O2 at 0.02% in a Citrate/Citric acid buffer). Extemporaneously, a volume of A is mixed with a volume of B, then the reaction mixture is distributed at a rate of 100 μl/well.
The enzymatic reaction develops between 6 and 10 minutes for Kistrin/αvβ3 then its evolution is stopped by the addition of 100 μl of 1M phosphoric acid. The optical density is determined at 450 nm.
Expression of the Results
The following curve is plotted: the bond percentage as a function of the logarithm of each concentration of the tested product.
For each product, the IC50 is determined according to the following formula: IC50=(B0+Bmin)/2 • B0=Maximum bond in the absence of any product • Bmin =Minimum bond in the presence of the highest concentration of the product.

Sequence of human αvβ3 receptor (P06756 31-889 limits assumed): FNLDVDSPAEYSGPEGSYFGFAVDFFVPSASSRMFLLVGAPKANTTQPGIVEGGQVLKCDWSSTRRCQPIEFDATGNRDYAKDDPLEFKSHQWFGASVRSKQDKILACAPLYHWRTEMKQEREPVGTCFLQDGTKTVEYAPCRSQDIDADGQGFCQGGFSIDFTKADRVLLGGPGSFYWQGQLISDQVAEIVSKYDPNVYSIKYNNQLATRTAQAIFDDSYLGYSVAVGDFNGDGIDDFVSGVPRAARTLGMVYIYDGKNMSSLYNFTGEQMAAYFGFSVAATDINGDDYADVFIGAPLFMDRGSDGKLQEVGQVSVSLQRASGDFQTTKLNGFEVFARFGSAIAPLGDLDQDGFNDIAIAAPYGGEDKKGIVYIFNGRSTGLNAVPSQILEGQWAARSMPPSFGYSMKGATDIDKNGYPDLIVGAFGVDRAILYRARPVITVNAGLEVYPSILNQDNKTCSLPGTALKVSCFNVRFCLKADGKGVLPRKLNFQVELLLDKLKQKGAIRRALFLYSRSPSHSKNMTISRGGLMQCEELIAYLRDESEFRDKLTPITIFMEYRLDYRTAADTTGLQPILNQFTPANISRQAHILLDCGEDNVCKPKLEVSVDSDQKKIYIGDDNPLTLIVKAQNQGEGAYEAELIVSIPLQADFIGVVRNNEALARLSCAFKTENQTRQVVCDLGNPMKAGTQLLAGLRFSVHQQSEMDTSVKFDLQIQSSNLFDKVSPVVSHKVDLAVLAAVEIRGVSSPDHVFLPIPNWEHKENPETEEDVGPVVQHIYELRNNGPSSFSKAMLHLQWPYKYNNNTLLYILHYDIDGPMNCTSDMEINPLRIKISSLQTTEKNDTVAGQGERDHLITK
Sequence of human αvβ3 receptor (P06756 891-1048 limits assumed): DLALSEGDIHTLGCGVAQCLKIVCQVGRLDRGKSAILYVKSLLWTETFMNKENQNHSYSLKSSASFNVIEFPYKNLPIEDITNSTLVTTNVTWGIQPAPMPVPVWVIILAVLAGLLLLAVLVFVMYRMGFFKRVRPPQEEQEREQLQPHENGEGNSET
Sequence of human αvβ3 receptor (P05106 27-788): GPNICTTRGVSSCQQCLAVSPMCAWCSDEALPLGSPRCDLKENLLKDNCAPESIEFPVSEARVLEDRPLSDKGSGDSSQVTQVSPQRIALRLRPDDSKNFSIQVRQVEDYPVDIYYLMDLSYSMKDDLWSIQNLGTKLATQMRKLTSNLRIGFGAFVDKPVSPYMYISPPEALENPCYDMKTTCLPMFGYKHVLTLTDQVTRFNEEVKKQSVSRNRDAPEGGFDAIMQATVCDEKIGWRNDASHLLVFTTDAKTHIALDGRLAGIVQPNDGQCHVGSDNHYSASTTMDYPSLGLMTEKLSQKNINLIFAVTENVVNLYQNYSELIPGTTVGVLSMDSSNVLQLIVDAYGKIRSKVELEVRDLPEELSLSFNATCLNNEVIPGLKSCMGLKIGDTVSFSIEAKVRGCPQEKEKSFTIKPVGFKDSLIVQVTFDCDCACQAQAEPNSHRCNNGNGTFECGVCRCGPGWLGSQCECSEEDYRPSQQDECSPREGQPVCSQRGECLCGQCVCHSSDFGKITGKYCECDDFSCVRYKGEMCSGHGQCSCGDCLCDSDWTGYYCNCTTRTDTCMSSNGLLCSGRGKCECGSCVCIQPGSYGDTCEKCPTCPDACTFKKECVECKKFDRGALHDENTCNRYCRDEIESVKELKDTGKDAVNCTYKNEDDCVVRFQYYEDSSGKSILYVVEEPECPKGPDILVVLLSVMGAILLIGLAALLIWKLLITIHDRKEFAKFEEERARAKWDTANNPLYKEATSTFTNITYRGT

| IC50 | Structure (SMILES) |
| --- | --- |
| 10 nM | O=C(CCCOc1ccc(C[C@H](Nc2nc3cc(C(F)(F)F)ccc3o2)C(=O)O)cc1)NC1=NCCCN1 [Example 23, O-[4-oxo-4-[(1,4,5,6-tetrahydro-2-pyrimidinyl)amino]butyl]-N-[5-(trifluoromethyl)-2-benzoxazolyl)-L-tyrosine] |
| 11 nM | O=C(CCCOc1ccc(C[C@H](Nc2nc3cc(Br)ccc3o2)C(=O)O)cc1)NC1=NCCCN1 [Example 18, N-(5-bromo-2-benzoxazolyl)-O-[4-oxo-4-[(1,4,5,6-tetrahydro-2-pyrimidinyl)amino]butyl]-L-tyrosine trifluoroacetate] |
| 6 nM | O=C(CCCOc1ccc(C[C@H](Nc2nc3ccccc3s2)C(=O)O)cc1)NC1=NCCCN1 [Example 7, N-(2-benzothiazolyl)-O-[4-oxo-4-[(1,4,5,6-tetrahydro-2-pyrimidinyl)amino]butyl]-L-tyrosine] |
| 7 nM | O=C(CCCOc1ccc(C[C@H](Nc2nc3ccc(F)cc3o2)C(=O)O)cc1)NC1=NCCCN1 [Example 13, N-(6-fluoro-2-benzoxazolyl)-O-[4-oxo-4-[(1,4,5,6-tetrahydro-2-pyrimidinyl)amino]butyl]-L-tyrosine] |
